Experimental data published in patent US4112228A, “7-(D-α-Hydroxy-2-arylacetamido)-3-(2-carboxyalkyl-2,3-dihydro-s-tri azolo-[4,3-b]pyridazin-3-on-6-ylthiomethyl)-3-cephem-4-carboxylic acids and derivatives” (priority 1977, dated 1978).
Where two headings read alike, the source gives them in different places.

Experiments:
S. aureus = assay: MIC by Steers' agar dilution method; format: cell-based; details: Staphylococcus aureus, MHA
bacteria of Table 4 = assay: Media effect on MIC (Nutrient, Mueller-Hinton, Heart-Infusion agar); format: cell-based; details: NA, MHA, HIA
St. faecalis = assay: MIC by Steers' agar dilution method; details: Enterococcus faecalis
E. coli = assay: MIC by Steers' agar dilution method; format: cell-based; details: Escherichia coli
S. aureus Smith = assay: Standard experimental infection in mice; format: in vivo; details: Table 6

Cn1nnnc1SCC1=C(C(=O)O)N2C(=O)[C@@H](NC(=O)[C@H](O)c3ccccc3)[C@H]2SC1 [Cefamandole, cefamandole, reference compound]
> 100 µg/mL: MIC (St. faecalis; MHA, Example 10) | MIC (St. faecalis; Sf-3 S. faecalis A9536, NA, Table 4)
little media effect: Media effect on MIC (bacteria of Table 4)
0.025 µg/mL: MIC (E. coli; NIHJ, MHA, Table 1, read-out: MIC)
6.3 µg/mL: MIC (S. aureus; Sa-65 A20609, Table 2) | MIC (S. aureus; Sa-66 A20610, Table 2) | MIC (S. aureus; Sa-67 A20611, Table 2) | MIC (S. aureus; Sa-69 A20613, Table 2) | MIC (E. coli; Ec-4 A15169, MHA, Table 3, read-out: MIC)
12.5 µg/mL: MIC (E. coli; Ec-46 A15164 (β-lactamase), HIA, Table 4, read-out: MIC) | MIC (E. coli; Ec-46 A15164 (β-lactamase), MHA, Table 4, read-out: MIC) | MIC (E. coli; Ec-46 A15164, MHA, Table 3, read-out: MIC) | MIC (E. coli; Ec-51 A20343 (β-lactamase), NA, Table 4, read-out: MIC) | MIC (E. coli; Ec-51 A20343, MHA, Table 3, read-out: MIC) | MIC (E. coli; Ec-56 A20365, MHA, Table 3, read-out: MIC)
3.1 µg/mL: MIC (E. coli; ATCC8739, ATCC 8739, MHA, Example 10) | MIC (E. coli; BX-1373, MHA, Example 10, read-out: MIC) | MIC (E. coli; Ec-36 A15147 (β-lactamase), HIA, Table 4, read-out: MIC) | MIC (E. coli; Ec-36 A15147 (β-lactamase), MHA, Table 4, read-out: MIC)
1/5: No. of survivors/No. tested (S. aureus Smith; 0.4 mg./kg.)
0.2 µg/mL: MIC (S. aureus; Smith, Example 10) | MIC (E. coli; Ec-3 Juhl A15119, NA, Table 4, read-out: MIC) | MIC (E. coli; Ec-49 A20107, MHA, Table 3, read-out: MIC)
25 µg/mL: MIC (E. coli; Ec-11 A20366 (β-lactamase), HIA, Table 4, read-out: MIC) | MIC (E. coli; Ec-11 A20366, MHA, Table 3, read-out: MIC) | MIC (E. coli; Ec-46 A15164 (β-lactamase), NA, Table 4, read-out: MIC) | MIC (E. coli; Ec-51 A20343 (β-lactamase), HIA, Table 4, read-out: MIC) | MIC (E. coli; Ec-51 A20343 (β-lactamase), MHA, Table 4, read-out: MIC)
0.6 mg/kg: ED50 (S. aureus Smith; Staphylococcus aureus, read-out: PD50)
50 µg/mL: MIC (St. faecalis) | MIC (E. coli; Ec-11 A20366 (β-lactamase), MHA, Table 4, read-out: MIC) | MIC (E. coli; Ec-11 A20366 (β-lactamase), NA, Table 4, read-out: MIC) | MIC (E. coli; Ec-47 A15170, MHA, Table 3, read-out: MIC)
1.6 µg/mL: MIC (E. coli; Ec-36 A15147 (β-lactamase), NA, Table 4, read-out: MIC) | MIC (E. coli; Ec-36 A15147, MHA, Table 3, read-out: MIC) | MIC (E. coli; Ec-45 A15148, MHA, Table 3, read-out: MIC) | MIC (E. coli; Ec-58 A9675, MHA, Table 3, read-out: MIC) | MIC (E. coli; strain not named (3rd of 3), MHA, Example 10, read-out: MIC)
5/5: No. of survivors/No. tested (S. aureus Smith; 1.6 mg./kg.) | No. of survivors/No. tested (S. aureus Smith; 6.3 mg./kg.) | No. of survivors/No. tested (S. aureus Smith; 25 mg./kg.)
0.4 µg/mL: MIC (S. aureus; Sa-68 A20612, Table 2) | MIC (E. coli; A15147, MHA, Table 1, read-out: MIC) | MIC (E. coli; A15810, MHA, Table 1, read-out: MIC) | MIC (E. coli; Ec-3 Juhl A15119, HIA, Table 4, read-out: MIC) | MIC (E. coli; Ec-3 Juhl A15119, MHA, Table 4, read-out: MIC) | MIC (E. coli; Juhl A15119, MHA, Table 1, read-out: MIC)
0.05 µg/mL: MIC (S. aureus; Smith A9537, Table 1) | MIC (E. coli; ATCC8739, ATCC 8739, MHA, Table 1, read-out: MIC) | MIC (E. coli; Ec-1 NIHJ, MHA, Table 4, read-out: MIC) | MIC (E. coli; NIHJ, MHA, Example 10, read-out: MIC)
0.1 µg/mL: MIC (S. aureus; strain not named, Example 10) | MIC (E. coli; A9660, MHA, Table 1, read-out: MIC) | MIC (E. coli; ATCC8739, Ec-15 ATCC 8739, HIA, Table 4, read-out: MIC) | MIC (E. coli; ATCC8739, Ec-15 ATCC 8739, MHA, Table 3, read-out: MIC) | MIC (E. coli; ATCC8739, Ec-15 ATCC 8739, MHA, Table 4, read-out: MIC) | MIC (E. coli; ATCC8739, Ec-15 ATCC 8739, NA, Table 4, read-out: MIC) | MIC (E. coli; Ec-1 NIHJ, HIA, Table 4, read-out: MIC) | MIC (E. coli; Ec-1 NIHJ, MHA, Table 3, read-out: MIC) | MIC (E. coli; Ec-1 NIHJ, NA, Table 4, read-out: MIC) | MIC (E. coli; Ec-34 A9660, MHA, Table 3, read-out: MIC) | MIC (E. coli; Ec-44 A9535, MHA, Table 3, read-out: MIC) | MIC (E. coli; strain not named (1st of 3), MHA, Example 10, read-out: MIC) | MIC (E. coli; strain not named (2nd of 3), MHA, Example 10, read-out: MIC)
0.8 µg/mL: MIC (E. coli; BX-1373, MHA, Table 1, read-out: MIC) | MIC (E. coli; Ec-3 Juhl A15119, MHA, Table 3, read-out: MIC) | MIC (E. coli; Ec-5 K-12, ML-1630 A20363, MHA, Table 3, read-out: MIC) | MIC (E. coli; Ec-35 A9435, MHA, Table 3, read-out: MIC) | MIC (E. coli; Ec-40 A20361, MHA, Table 3, read-out: MIC) | MIC (E. coli; Ec-50 A20109, MHA, Table 3, read-out: MIC) | MIC (E. coli; Ec-59 A20766, MHA, Table 3, read-out: MIC) | MIC (E. coli; Ec-62 A20895, MHA, Table 3, read-out: MIC) | MIC (E. coli; Juhl, MHA, Example 10, read-out: MIC)
100 µg/mL: MIC (St. faecalis; Sf-3 S. faecalis A9536, HIA, Table 4) | MIC (St. faecalis; Sf-3 S. faecalis A9536, MHA, Table 4)
